Experiments:
Bacillus subtilus 168 = experiment: MIC, serial dilution liquid culture, overnight in 96-well plates; format: cell-based, Bacillus subtilis; conditions: wild type scaffold variants, equivalent potency
Staph aureus strains = experiment: Antibiotic potency of wild type thiocillin variants; format: cell-based, Staphylococcus aureus; conditions: wild type scaffold variants, equivalent potency

Substance | antibiotic potency against B subtilis (Bacillus subtilus 168) | antibiotic potency against Staph aureus strains (Staph aureus strains)
YM-266183 | submicromolar | submicromolar
Micrococcin P1 | submicromolar | submicromolar
Micrococcin P2 | submicromolar | submicromolar
Thiocillin I | submicromolar | submicromolar

Reference: publication PMC2882596 (Journal of the American Chemical Society, 2010)
